Laboratory results published in patent publication US20240285545A1, “NANOSUSPENSION FORMULATION FOR TREATMENT OF PULMONARY FIBROSIS” (The Johns Hopkins University, priority 2023, published 2024).

Experiments:
[1] = oral administration of 100 mg/kg NTB, prior studies; cited from earlier work
[2] = free-base form; cited from earlier work
silicotic animals = conditions: daily oral 100 mg/kg; model with lower silica dose (2.5 mg/mouse); cited from earlier work
[3] = test system: silica-induced pulmonary fibrosis model; test: Therapeutic efficacy in silica-induced pulmonary fibrosis model (histology, lung mechanics); assay type: in vivo, C57BL/6 mice; conditions: oral 100 mg/kg daily
Protocol: The Study design for assessing the therapeutic efficacy of NTB-NS in a preclinical silica-induced pulmonary fibrosis model is shown in FIG. 7. The silicosis model was established by a single intratracheal instillation of silica microparticles (800 mg/kg) into the lungs of C57BL/6 mice (Silicosis); in parallel, healthy control animals received saline in an identical manner (Control). Fifteen days after the silica instillation, animals were randomly assigned to different groups to receive oral daily doses of NTB-Esy at 100 mg/kg or intratracheal NTB-NS at a NTB dose of 0.1 or 1 mg/kg every 72 hours. Lungs were harvested for analysis at Day 34. IT: intratracheal; OR: oral. […]
For lung mechanics analysis at the end of treatments, mice were sedated with diazepam (1 mg/kg, intraperitoneal), anesthetized with thiopenthal sodium (20 mg/kg, intraperitoneal), tracheotomized, paralyzed with vecuronium bromide (0.005 mg/kg, intravenous), and ventilated with a constant flow ventilator (Samay VR 15, Montevideo, Uruguay) using the following parameters: frequency 100 breaths/min; tidal volume 0.2 mL; fraction of inspired oxygen 0.21. […] Data were analyzed using ANADAT data analysis software (RHT-InfoData Inc., Montreal Canada).
For histological analysis, left lung tissues were fixed with 4% paraformaldehyde and embedded in paraffin blocks. […] The granuloma fraction was calculated as follows: […]

For `COC(=O)c1ccc2c(c1)NC(=O)/C2=C(\Nc1ccc(N(C)C(=O)CN2CCN(C)CC2)cc1)c1ccccc1` [NTB, Nintedanib], the “Amount of drug available in mouse lungs” value [1] is given as “approximately 2.5 μg”, the Aqueous solubility [2] is given as “low aqueous solubility” and the “Fibrotic score in the lungs of silicotic animals” value (silicotic animals) is given as “significantly reduces”.

With `CCS(=O)(=O)O.COC(=O)c1ccc2c(c1)NC(=O)/C2=C(\Nc1ccc(N(C)C(=O)CN2CCN(C)CC2)cc1)c1ccccc1` [NTB-Esy, NTB Esylate] the “Area of collagen deposition in alveolar septa versus untreated silicotic animals” value [3] was “unlike 100 mg/kg oral NTB-Esy, significantly reduced” and the “Static lung elastance (Est,L)” value [3] was “unlike oral NTB-Esy (100 mg/kg, daily), significantly decreased”.
